# Key:
# [1] = molecular target: insulin receptor Tyr kinase; conditions: Table 2, data from Hoessel et al. (1999); cited from earlier work
# CDK2/cyclin A = CDK2/cyclin A (Homo sapiens, UniProt P24941); set-up: made in house; conditions: Hoessel et al. (1999); read-out: IC50 CDK2/cyclinA; cited from earlier work
# [2] = system: 5L (AhR +/+) hepatoma cells; experiment: FACS cell cycle analysis, 5L cells; assay type: cell-based, mouse
# protein kinase C ζ = molecular target: T1, protein kinase C ζ (Homo sapiens, UniProt Q05513); set-up: made in house; conditions: Table 2, data from Hoessel et al. (1999); cited from earlier work
# T1 sequence (Q05513 1-592): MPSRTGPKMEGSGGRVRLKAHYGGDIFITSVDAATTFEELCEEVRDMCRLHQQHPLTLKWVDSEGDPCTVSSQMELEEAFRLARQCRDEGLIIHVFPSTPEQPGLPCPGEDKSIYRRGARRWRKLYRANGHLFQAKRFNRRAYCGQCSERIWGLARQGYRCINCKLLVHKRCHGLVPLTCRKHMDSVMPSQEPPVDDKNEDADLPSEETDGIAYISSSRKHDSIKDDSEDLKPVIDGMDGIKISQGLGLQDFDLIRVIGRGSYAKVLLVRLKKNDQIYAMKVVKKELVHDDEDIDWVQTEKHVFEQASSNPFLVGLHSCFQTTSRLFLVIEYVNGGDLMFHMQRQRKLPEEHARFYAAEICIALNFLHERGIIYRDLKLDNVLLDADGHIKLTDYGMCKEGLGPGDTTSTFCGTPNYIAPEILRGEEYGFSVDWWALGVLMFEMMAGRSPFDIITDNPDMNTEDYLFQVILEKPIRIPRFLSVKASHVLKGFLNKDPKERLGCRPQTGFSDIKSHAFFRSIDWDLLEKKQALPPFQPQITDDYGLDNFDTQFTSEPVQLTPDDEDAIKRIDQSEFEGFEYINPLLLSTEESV
# casein kinase 2 = conditions: Table 2, data from Hoessel et al. (1999); cited from earlier work
# [3] = system: BP8 (AhR −/−) hepatoma cells; experiment: Cell viability MTT assay, BP8 cells; assay type: cell-based, mouse; conditions: range of concentrations, 24 and 48 hr
# protein kinase C α = protein kinase C α (Homo sapiens, UniProt P17252); set-up: made in house; conditions: Table 2, data from Hoessel et al. (1999); cited from earlier work
# [4] = system: GSK-3α (Tyr276) / GSK-3β (Tyr216); experiment: Tyrosine phosphorylation of GSK-3 in SH-SY5Y cells (Western blot); assay type: cell-based, human; conditions: 1 μM, 12 hr
# Description: GSK-3α and GSK-3β activity is enhanced by the phosphorylation of a specific tyrosine residue (Tyr276 and Tyr216, respectively) (Hughes et al. (1993) EMBO J. 12: 803-808; Dajani et al. (2003) EMBO J. 22: 494-501). The tyrosine kinase responsible for this phosphorylation in mammals is unknown, but there is some evidence that it indirectly depends on GSK-3 activity (Bhat et al. (2000) Proc. Natl. Acad. Sci. U.S.A. 97: 11074-11079; Shaw et al. (1997) FEBS Lett. 416: 307-311). […] SH-SY5Y cells were exposed to IO, MeIO, BIO and MeBIO for 12 hr and the phosphorylation of Tyr276 (GSK-3α) and Tyr216 (GSK-3β) was estimated by Western blotting with phospho-specific antibodies. […] This was accompanied by an increased level in total GSK-3β, total β-catenin, and dephospho-&catenin.
# protein kinase C γ = protein kinase C γ (Homo sapiens, UniProt P05129); set-up: made in house; conditions: Table 2, data from Hoessel et al. (1999); cited from earlier work
# protein kinase C ε = molecular target: T2, protein kinase C ε (Homo sapiens, UniProt Q02156); set-up: made in house; conditions: Table 2, data from Hoessel et al. (1999); cited from earlier work
# T2 sequence (Q02156 1-737): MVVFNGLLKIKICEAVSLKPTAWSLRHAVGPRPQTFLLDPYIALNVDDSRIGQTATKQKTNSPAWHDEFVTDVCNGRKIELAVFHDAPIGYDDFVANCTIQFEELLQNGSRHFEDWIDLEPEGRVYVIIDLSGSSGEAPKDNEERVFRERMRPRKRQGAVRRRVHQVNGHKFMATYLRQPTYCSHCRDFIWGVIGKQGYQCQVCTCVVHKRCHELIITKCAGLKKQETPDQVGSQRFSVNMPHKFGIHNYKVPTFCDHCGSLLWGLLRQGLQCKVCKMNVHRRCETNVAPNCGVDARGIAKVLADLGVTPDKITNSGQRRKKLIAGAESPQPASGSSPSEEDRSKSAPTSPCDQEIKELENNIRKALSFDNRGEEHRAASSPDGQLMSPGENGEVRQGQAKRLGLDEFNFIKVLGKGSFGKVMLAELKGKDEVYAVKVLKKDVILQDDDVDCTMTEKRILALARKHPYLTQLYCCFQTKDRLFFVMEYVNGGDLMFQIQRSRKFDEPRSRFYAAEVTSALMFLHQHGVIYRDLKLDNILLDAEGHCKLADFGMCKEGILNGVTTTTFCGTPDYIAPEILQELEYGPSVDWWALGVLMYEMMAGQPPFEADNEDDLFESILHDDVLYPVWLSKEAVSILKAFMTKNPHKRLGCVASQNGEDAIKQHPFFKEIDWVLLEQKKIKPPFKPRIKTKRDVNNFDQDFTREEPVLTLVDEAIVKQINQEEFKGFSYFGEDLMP
# erk2 = erk2 (Homo sapiens, UniProt P28482); set-up: made in house; conditions: Table 2, data from Hoessel et al. (1999); cited from earlier work
# GSK-3 = experiment: β-catenin phosphorylation on GSK-3 specific sites in COS-1 cells (Western blot); conditions: 5 μM indirubins or 20 mM LiCl, 24 hrs
# AhR = AhR (Homo sapiens, UniProt P35869)
# Chain of AhR (P35869 11-848): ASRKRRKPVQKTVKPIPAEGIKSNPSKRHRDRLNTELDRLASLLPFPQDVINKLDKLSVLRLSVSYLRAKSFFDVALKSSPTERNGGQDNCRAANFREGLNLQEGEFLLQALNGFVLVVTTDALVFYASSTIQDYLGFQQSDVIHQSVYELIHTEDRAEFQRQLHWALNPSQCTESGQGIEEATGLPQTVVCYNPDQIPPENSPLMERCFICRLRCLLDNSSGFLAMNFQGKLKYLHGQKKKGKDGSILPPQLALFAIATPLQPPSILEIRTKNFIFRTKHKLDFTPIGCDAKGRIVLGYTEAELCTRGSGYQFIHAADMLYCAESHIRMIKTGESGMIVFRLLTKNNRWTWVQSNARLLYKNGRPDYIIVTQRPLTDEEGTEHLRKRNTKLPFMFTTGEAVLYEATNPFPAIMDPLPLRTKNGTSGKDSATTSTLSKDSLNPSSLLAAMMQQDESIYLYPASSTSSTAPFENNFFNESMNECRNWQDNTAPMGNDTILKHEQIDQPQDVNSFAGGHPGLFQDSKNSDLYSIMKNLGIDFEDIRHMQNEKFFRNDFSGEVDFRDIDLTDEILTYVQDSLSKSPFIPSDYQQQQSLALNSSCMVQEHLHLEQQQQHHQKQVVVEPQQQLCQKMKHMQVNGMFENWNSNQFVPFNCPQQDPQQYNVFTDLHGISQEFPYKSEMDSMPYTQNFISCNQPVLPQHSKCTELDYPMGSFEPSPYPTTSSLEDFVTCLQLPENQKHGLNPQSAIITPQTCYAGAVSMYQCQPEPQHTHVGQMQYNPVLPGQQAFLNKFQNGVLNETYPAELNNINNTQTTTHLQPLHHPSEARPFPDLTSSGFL
# Chain of AhR (P27540 whole entry partner): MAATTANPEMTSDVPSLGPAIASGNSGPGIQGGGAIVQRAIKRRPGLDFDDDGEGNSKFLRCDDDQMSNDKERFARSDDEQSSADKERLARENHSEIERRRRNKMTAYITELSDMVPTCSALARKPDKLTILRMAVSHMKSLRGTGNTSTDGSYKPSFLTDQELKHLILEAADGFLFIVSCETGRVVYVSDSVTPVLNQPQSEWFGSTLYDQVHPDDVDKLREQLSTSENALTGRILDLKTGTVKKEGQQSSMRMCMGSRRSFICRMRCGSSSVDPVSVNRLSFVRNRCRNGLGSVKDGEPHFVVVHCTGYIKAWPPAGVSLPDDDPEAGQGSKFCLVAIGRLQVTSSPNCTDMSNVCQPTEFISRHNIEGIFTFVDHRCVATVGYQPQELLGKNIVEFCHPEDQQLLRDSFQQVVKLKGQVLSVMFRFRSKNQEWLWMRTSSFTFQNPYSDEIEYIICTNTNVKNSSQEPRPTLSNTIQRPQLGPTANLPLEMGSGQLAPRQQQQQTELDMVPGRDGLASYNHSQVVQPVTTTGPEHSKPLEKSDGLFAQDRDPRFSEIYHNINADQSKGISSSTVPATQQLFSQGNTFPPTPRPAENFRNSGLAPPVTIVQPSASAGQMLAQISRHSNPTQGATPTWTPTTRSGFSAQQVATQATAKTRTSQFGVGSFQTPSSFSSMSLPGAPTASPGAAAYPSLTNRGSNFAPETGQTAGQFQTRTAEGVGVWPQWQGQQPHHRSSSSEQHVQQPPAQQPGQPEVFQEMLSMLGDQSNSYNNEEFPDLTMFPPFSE
# Chain of erk2 (P28482 whole entry, species assumed): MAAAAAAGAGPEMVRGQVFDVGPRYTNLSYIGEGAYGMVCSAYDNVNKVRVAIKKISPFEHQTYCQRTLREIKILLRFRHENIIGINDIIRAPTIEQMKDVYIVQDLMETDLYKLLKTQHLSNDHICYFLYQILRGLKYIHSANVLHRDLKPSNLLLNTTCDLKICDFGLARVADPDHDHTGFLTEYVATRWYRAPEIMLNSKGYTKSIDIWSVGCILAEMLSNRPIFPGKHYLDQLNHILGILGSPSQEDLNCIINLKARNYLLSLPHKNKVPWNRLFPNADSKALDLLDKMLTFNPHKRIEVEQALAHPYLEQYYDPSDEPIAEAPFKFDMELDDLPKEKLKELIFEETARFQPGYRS
smiles,measurement,setting,value
"O=C1Nc2ccccc2/C1=C1/Nc2ccccc2/C1=N\O [7h, indirubin-3′-oxime]",IC50,[1],11 µM
same,IC50,CDK2/cyclin A,0.44 µM
same,accumulation of 5L cells in G1 phase,[2],modest (but detectable)
same,IC50,protein kinase C ζ,> 100 µM
same,IC50,casein kinase 2,12 µM
same,survival of BP8 cells (MTT),[3],equally sensitive to IO and BIO
same,IC50,protein kinase C α,27 µM
same,level of tyrosine phosphorylation of both GSK-3 isoforms,[4],dramatically reduced
same,IC50,protein kinase C γ,8.4 µM
same,IC50,protein kinase C ε,20 µM
same,IC50,erk2,> 100 µM
same,unphosphorylated β-catenin level,GSK-3,"neither the kinase-inactive MeBIO nor IO, led to a major increase"
"CC(=O)ON=C1C(=C2C(=O)Nc3cc(Br)ccc32)Nc2ccccc21 [8a, 6-Bromoindirubin-3′-acetoxime]",EC50,AhR,≥ 0.1 µM

# From US20070276025A1, “Indirubin-Type Compounds, Compositions, and Methods for Their Use” (priority 2003, published 2007)
